Measured values: patent EP3075724A1, “SOLID FORM OF AGOMELATINE” (F.I.S.- Fabbrica Italiana Sintetici S.p.A., priority 2015, dated 2016)

How the values were obtained:
Kinetic dissolution test = assay type: physicochemical; settings: 200 mg tablet, 100 mL saline solution, paddle 100 rpm, 37 °C
Description: The tests were performed in duplicate on 13 mm tablets containing 200 mg agomelatine (form I) or agomelatine pyruvic acid cocrystal, which were prepared on a Digital Hydraulic Press at a force of about 8 metric tons. The tablets were placed in 100 mL of saline solution in a paddle apparatus at 100 rpm and 37 °C ± 0.5 °C. A 3 mL sample was withdrawn from each vessel at fixed time points, filtered through a 0.45 µm filter (discarding the first 1 mL), analyzed by HPLC, and compared to a previously prepared reference standard calibration curve. Immediately after each sampling, the solutions in the vessels were replenished with 3 mL of saline.

[1] = Stability tests (chemical stability by HPLC); assay type: physicochemical
Description: Agomelatine pyruvic acid cocrystal according to Example 1 was subjected to stability tests for seven days at 25 °C, 60 % RH and 40 °C, 75 % RH, respectively.

[2] = cited from earlier work
[3] = 5 min, Ø (average of #1 and #2)
[4] = 15 min, Ø (average of #1 and #2)
[5] = 30 min, Ø (average of #1 and #2)
[6] = 45 min, Ø (average of #1 and #2)
[7] = 60 min, Ø (average of #1 and #2)
[8] = 90 min, Ø (average of #1 and #2)
[9] = 120 min, Ø (average of #1 and #2)
[10] = 180 min, Ø (average of #1 and #2)
[11] = 240 min, Ø (average of #1 and #2)
[12] = 300 min, Ø (average of #1 and #2)
[13] = 360 min, Ø (average of #1 and #2)
[14] = 420 min, Ø (average of #1 and #2)

kinetic dissolution in aqueous medium (Kinetic dissolution test; 5 min, #1) | kinetic dissolution in aqueous medium (Kinetic dissolution test; 5 min, #2) | kinetic dissolution in aqueous medium (Kinetic dissolution test; [3]) | kinetic dissolution in aqueous medium (Kinetic dissolution test; 15 min, #1) | kinetic dissolution in aqueous medium (Kinetic dissolution test; 15 min, #2) | kinetic dissolution in aqueous medium (Kinetic dissolution test; [4]) | kinetic dissolution in aqueous medium (Kinetic dissolution test; 30 min, #1) | kinetic dissolution in aqueous medium (Kinetic dissolution test; 30 min, #2) | kinetic dissolution in aqueous medium (Kinetic dissolution test; [5]) | kinetic dissolution in aqueous medium (Kinetic dissolution test; 45 min, #1) | kinetic dissolution in aqueous medium (Kinetic dissolution test; 45 min, #2) | kinetic dissolution in aqueous medium (Kinetic dissolution test; [6]) | kinetic dissolution in aqueous medium (Kinetic dissolution test; 60 min, #1) | kinetic dissolution in aqueous medium (Kinetic dissolution test; 60 min, #2) | kinetic dissolution in aqueous medium (Kinetic dissolution test; [7]) | kinetic dissolution in aqueous medium (Kinetic dissolution test; 90 min, #1) | kinetic dissolution in aqueous medium (Kinetic dissolution test; 90 min, #2) | kinetic dissolution in aqueous medium (Kinetic dissolution test; [8]) | kinetic dissolution in aqueous medium (Kinetic dissolution test; 120 min, #1) | kinetic dissolution in aqueous medium (Kinetic dissolution test; 120 min, #2) | SMILES | other results
3.39 µg/mL | 4.38 µg/mL | 3.89 µg/mL | 8.20 µg/mL | 9.32 µg/mL | 8.76 µg/mL | 14.80 µg/mL | 15.58 µg/mL | 15.19 µg/mL | 22.55 µg/mL | 23.81 µg/mL | 23.18 µg/mL | 30.05 µg/mL | 31.53 µg/mL | 30.79 µg/mL | 47.49 µg/mL | 50.84 µg/mL | 49.17 µg/mL | 55.73 µg/mL | 58.72 µg/mL | COc1ccc2cccc(CCNC(C)=O)c2c1 [Form I, N-[2-(7-methoxynaphthalen-1-yl)ethyl]acetamide] | kinetic dissolution in aqueous medium (Kinetic dissolution test; [9]): 57.23 µg/mL; kinetic dissolution in aqueous medium (Kinetic dissolution test; 180 min, #1): 75.07 µg/mL; kinetic dissolution in aqueous medium (Kinetic dissolution test; 180 min, #2): 74.85 µg/mL; kinetic dissolution in aqueous medium (Kinetic dissolution test; [10]): 74.96 µg/mL; kinetic dissolution in aqueous medium (Kinetic dissolution test; 240 min, #1): 91.32 µg/mL; kinetic dissolution in aqueous medium (Kinetic dissolution test; 240 min, #2): 86.85 µg/mL; kinetic dissolution in aqueous medium (Kinetic dissolution test; [11]): 89.09 µg/mL; kinetic dissolution in aqueous medium (Kinetic dissolution test; 300 min, #1): 102.54 µg/mL; kinetic dissolution in aqueous medium (Kinetic dissolution test; 300 min, #2): 96.76 µg/mL; kinetic dissolution in aqueous medium (Kinetic dissolution test; [12]): 99.65 µg/mL; kinetic dissolution in aqueous medium (Kinetic dissolution test; 360 min, #1): 112.42 µg/mL; kinetic dissolution in aqueous medium (Kinetic dissolution test; 360 min, #2): 106.36 µg/mL; kinetic dissolution in aqueous medium (Kinetic dissolution test; [13]): 109.39 µg/mL; kinetic dissolution in aqueous medium (Kinetic dissolution test; 420 min, #1): 121.98 µg/mL; kinetic dissolution in aqueous medium (Kinetic dissolution test; 420 min, #2): 114.14 µg/mL; kinetic dissolution in aqueous medium (Kinetic dissolution test; [14]): 118.06 µg/mL
5.21 µg/mL | 5.45 µg/mL | 5.33 µg/mL | 12.55 µg/mL | 13.42 µg/mL | 12.99 µg/mL | 22.75 µg/mL | 24.10 µg/mL | 23.43 µg/mL | 33.41 µg/mL | 37.03 µg/mL | 35.22 µg/mL | 42.71 µg/mL | 50.65 µg/mL | 46.68 µg/mL | 70.03 µg/mL | 77.31 µg/mL | 73.67 µg/mL | 84.65 µg/mL | 90.24 µg/mL | COc1ccc2cccc(CCNC(C)=O)c2c1 [Pyruvic Acid Cocrystal] | kinetic dissolution in aqueous medium (Kinetic dissolution test; [9]): 87.45 µg/mL; kinetic dissolution in aqueous medium (Kinetic dissolution test; 180 min, #1): 114.37 µg/mL; kinetic dissolution in aqueous medium (Kinetic dissolution test; 180 min, #2): 114.58 µg/mL; kinetic dissolution in aqueous medium (Kinetic dissolution test; [10]): 114.48 µg/mL; kinetic dissolution in aqueous medium (Kinetic dissolution test; 240 min, #1): 131.99 µg/mL; kinetic dissolution in aqueous medium (Kinetic dissolution test; 240 min, #2): 131.80 µg/mL; kinetic dissolution in aqueous medium (Kinetic dissolution test; [11]): 131.9 µg/mL; kinetic dissolution in aqueous medium (Kinetic dissolution test; 300 min, #1): 144.64 µg/mL; kinetic dissolution in aqueous medium (Kinetic dissolution test; 300 min, #2): 144.74 µg/mL; kinetic dissolution in aqueous medium (Kinetic dissolution test; [12]): 144.69 µg/mL; kinetic dissolution in aqueous medium (Kinetic dissolution test; 360 min, #1): 155.52 µg/mL; kinetic dissolution in aqueous medium (Kinetic dissolution test; 360 min, #2): 156.49 µg/mL; kinetic dissolution in aqueous medium (Kinetic dissolution test; [13]): 156.01 µg/mL; kinetic dissolution in aqueous medium (Kinetic dissolution test; 420 min, #1): 165.30 µg/mL; kinetic dissolution in aqueous medium (Kinetic dissolution test; 420 min, #2): 163.14 µg/mL; kinetic dissolution in aqueous medium (Kinetic dissolution test; [14]): 164.22 µg/mL; chemical stability as determined by HPLC ([1]; seven days at 25 °C, 60 % RH): excellent chemical stability; chemical stability as determined by HPLC ([1]; seven days at 40 °C, 75 % RH): excellent chemical stability
 |  |  |  |  |  |  |  |  |  |  |  |  |  |  |  |  |  |  |  | COc1ccc2cccc(CCNC(C)=O)c2c1 [agomelatine, N-[2-(7-methoxynaphthalen-1-yl)ethyl]acetamide] | solubility in various organic solvents ([2]; e.g. ethanol, methanol, methylene chloride, freely soluble): > 100 mg/mL; solubility in purified water ([2]; purified water, practically insoluble): < 0.1 mg/mL
